Drawing on paper PMC11442132, “Discovery of β‐nitrostyrene derivatives as potential quorum sensing inhibitors for biofilm inhibition and antivirulence factor therapeutics against Serratia marcescens” (mLife, 2024), this text covers Kd for one molecule.

The target in this assay is T1, SmaR (Serratia marcescens, UniProt Q14RS3).
T1 construct: pure recombinant protein
Put plainly: microscale thermophoresis. The class given is binding.

T1 sequence (Q14RS3 1-248): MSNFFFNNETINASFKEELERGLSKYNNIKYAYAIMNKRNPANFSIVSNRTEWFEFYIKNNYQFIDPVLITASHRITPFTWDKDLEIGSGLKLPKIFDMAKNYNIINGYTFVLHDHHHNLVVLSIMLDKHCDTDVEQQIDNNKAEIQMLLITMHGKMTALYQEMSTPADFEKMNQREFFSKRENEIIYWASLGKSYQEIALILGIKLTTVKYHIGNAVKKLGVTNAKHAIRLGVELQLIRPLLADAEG

As for `Cc1ccc(/C=C/[N+](=O)[O-])cc1` [compound 28, (E)‐1‐methyl‐4‐(2‐nitrovinyl)benzene], the Kd was determined as 38.9 µM.
